Reference: US5552421A, “Leukotriene biosynthesis inhibitors” (Boehringer Ingelheim Pharmaceuticals, Inc., priority 1995, dated 1996)

test system: LTB4 biosynthesis in human polymorphonuclear leukocytes (PMNs); test: Inhibition of LTB4 biosynthesis in human polymorphonuclear leukocytes (PMNs); format: cell-based; conditions: Homo sapiens, Leukocyte, Table 1A, Esters; LTB4, A23187-stimulated human PMNs
Method: Inhibition of LTB4, biosynthesis in human polymorphonuclear leukocytes (PMNs)
The inhibition of leukotriene biosynthesis is measured by determining whether and to what extent test compounds can inhibit LTB4 production from endogenous arachidonic acid in human peripheral blood leukocytes.
To 48-well tissue culture plates was added a solution of the test compound followed by addition of human polymorphonuclear leukocytes isolated from peripheral blood at a density of 1.5×10^6 cells/well. Culture plates were preincubated for fifteen minutes with shaking at 28° C. Cells were stimulated with calcium ionophore A23187 at a final concentration of 2.5 μM for an additional ten minutes. The reaction was terminated by the addition of an EGTA solution (10 mM final concentration)followed by centrifugation at 1500 rpm at 10° C. Supernatants were stored at -70° C. LTB4 levels were determined by RIA using a commercially available kit. Nonlinear regression analysis was used to calculate. IC50 values.
The following tables show % inhibition of LTB4 biosynthesis by compounds of the invention at test concentrations indicated, with the determined IC50 shown in μM.

| IC50 | SMILES |
| --- | --- |
| 200 nM | CCOC(=O)C(C)(Cc1ccccc1)Nc1nc2ccccc2s1 (stereo not drawn) [Compound 38] |
| 76 nM | CCOC(=O)C(C)(Cc1ccccc1)Nc1nc2ccccc2o1 (stereo not drawn) [Compound 39] |

same assay, conditions: Homo sapiens, Leukocyte, Table 2, Amides; values with <: see footnote d, Tables 1 and 1A

| IC50 | SMILES |
| --- | --- |
| 3000 nM | CCNC(=O)C(Cc1ccccc1)Nc1nc2ccc(C(C)C)cc2s1 (stereo not drawn) [Compound 42] |
| 72 nM | CNC(=O)[C@H](CC1CCCCC1)Nc1nc2cc(C)ccc2o1 [Compound 44, L-N-(5-Methylbenzoxazol-2-yl)cyclohexylalanine-N'-methylamide] |

same assay, conditions: Homo sapiens, Leukocyte, Table 3, Phenyl; values with <: see footnote d, Table 1

| IC50 | SMILES |
| --- | --- |
| 13 nM | Ic1ccc2oc(NC(CC3CCCCC3)c3ccccc3)nc2c1 (stereo not drawn) [Compound 59] |
| 150 nM | N#Cc1ccc2oc(NC(CC3CCCCC3)c3ccccc3)nc2c1 (stereo not drawn) [Compound 67] |
| < 1000 nM | NC(=O)c1ccc2oc(NC(CC3CCCCC3)c3ccccc3)nc2c1 (stereo not drawn) [Compound 64] |
| 220 nM | O=C(O)c1ccc2nc(NC(CC3CCCCC3)c3ccccc3)sc2c1 (stereo not drawn) [Compound 66] |
| 6.3 nM | CC(C)c1ccc2oc(NC(CC3CCCCC3)c3ccccc3)nc2c1 (stereo not drawn) [Compound 54] |
| 160 nM | CS(=O)(=O)Nc1ccc2oc(NC(CC3CCCCC3)c3ccccc3)nc2c1 (stereo not drawn) [Compound 60] |
| < 1000 nM | c1ccc(CC(Nc2nc3ccccc3o2)c2ccccc2)cc1 (stereo not drawn) [Compound 50] |

same assay, conditions: Homo sapiens, Leukocyte, Table 4, Pyridyl; values with <: see footnote d, Table 1

| SMILES | IC50 |
| --- | --- |
| FC(F)(F)c1ccc2oc(NC(CC3CCCCC3)c3ccccn3)nc2c1 (stereo not drawn) [Compound 95] | 1.2 nM |
| Fc1ccc(CC(Nc2nc3cc(Cl)ccc3s2)c2ccccn2)cc1 (stereo not drawn) [Compound 96] | 27 nM |
| Clc1ccc2oc(NC(CC3CCCCC3)c3cccnc3)nc2c1 (stereo not drawn) [Compound 86] | 23 nM |
| Cc1ccc2oc(NC(CC3CCCCC3)c3cccnc3)nc2c1 (stereo not drawn) [Compound 82] | 24 nM |
| Clc1ccc2oc(NC(CC3CCCCC3)c3ccccn3)nc2c1 (stereo not drawn) [Compound 91] | 2 nM |
| CN(C)S(=O)(=O)c1ccc2oc(NC(Cc3ccc(F)cc3)c3ccccn3)nc2c1 (stereo not drawn) [Compound 103] | 50 nM |
| CC(C)c1ccc2oc(NC(Cc3ccc(Cl)cc3)c3ccccn3)nc2c1 (stereo not drawn) [Compound 98] | 29 nM |
| O=[N+]([O-])c1ccc2oc(NC(CC3CCCCC3)c3cccnc3)nc2c1 (stereo not drawn) [Compound 85] | 24 nM |
| COC(=O)c1ccc2oc(NC(Cc3ccc(F)cc3)c3ccccn3)nc2c1 (stereo not drawn) [Compound 101] | 27 nM |
| Clc1ccc(CC(Nc2nc3cc(Cl)ccc3o2)c2ccccn2)cc1 (stereo not drawn) [Compound 99] | 14 nM |

The remaining lines, values ahead:

| IC50 | SMILES |
| --- | --- |
| 2 nM | Fc1ccc2oc(NC(CC3CCCCC3)c3ccccn3)nc2c1 (stereo not drawn) [Compound 109] |
| 11 nM | COc1ccc2oc(NC(Cc3ccc(F)cc3)c3ccccn3)nc2c1 (stereo not drawn) [Compound 114] |
| 21 nM | Fc1ccc(CC(Nc2nc3cc(F)ccc3o2)c2ccccn2)cc1 (stereo not drawn) [Compound 110] |
| < 100 nM | Cc1nc(CC(Nc2nc3cc(C(C)C)ccc3o2)c2ccccn2)cs1 (stereo not drawn) [Compound 116] |
| < 1000 nM | Fc1ccc(CC(Nc2nc3ccc(C(F)(F)F)cc3s2)c2ccccn2)cc1 (stereo not drawn) [Compound 106] |

same assay, conditions: Homo sapiens, Leukocyte, Table 5, Thiophene

| IC50 | SMILES |
| --- | --- |
| 6.2 nM | c1csc(C(CC2CCCCC2)Nc2nc3ccccc3o2)c1 (stereo not drawn) [Compound 120] |

same assay, conditions: Homo sapiens, Leukocyte, Table 6, Methyloxadiazole; values with <: see footnote d, Table 1

| IC50 | SMILES |
| --- | --- |
| 1800 nM | Cc1noc([C@H](Cc2ccccc2)Nc2nc3ccccc3s2)n1 [Compound 122] |
| 1300 nM | Cc1noc(C(Cc2ccccc2)Nc2nc3ccccc3s2)n1 (stereo not drawn) [Compound 121] |
| < 1000 nM | Cc1noc(C(Cc2csc(C)n2)Nc2nc3cc(C(C)C)ccc3o2)n1 (stereo not drawn) [Compound 127] |

same assay, conditions: Homo sapiens, Leukocyte, Table 7, Ketones

| IC50 | SMILES |
| --- | --- |
| < 300 nM | O=C(c1ccccc1)[C@H](Cc1ccccc1)Nc1nc2ccccc2o1 [Compound 130] |
| 350 nM | CC(=O)[C@H](Cc1ccccc1)Nc1nc2ccc(C(C)C)cc2s1 [Compound 128, 3-[(6-Isopropylbenzothiazol-2-yl)amino]-4-phenylbutan-2-one] |
| < 1000 nM | Cc1ccc2oc(N[C@@H](CC3CCCCC3)C(=O)c3ccccc3)nc2c1 [Compound 131] |

same assay, conditions: Homo sapiens, Leukocyte, Table 8, Miscellaneous Acyclic; values with <: see footnote d, Table 1

| IC50 | SMILES |
| --- | --- |
| < 300 nM | COCC(Cc1csc(C)n1)Nc1nc2cc(C(C)C)ccc2o1 (stereo not drawn) [Compound 141] |
| < 100 nM | CSCC(Cc1csc(C)n1)Nc1nc2cc(C(C)C)ccc2o1 (stereo not drawn) [Compound 145] |
| 63 nM | CNC(=O)OC[C@H](Cc1ccccc1)Nc1nc2cc(C(C)C)ccc2o1 [Compound 154] |
| < 300 nM | CC(C)c1ccc2oc(N[C@@H](Cc3ccccc3)CN(C)C)nc2c1 [Compound 150] |
| < 300 nM | CC(C)c1ccc2oc(N[C@H](CNC(N)=O)Cc3ccccc3)nc2c1 [Compound 153] |
| < 30 nM | CC(C)c1ccc2oc(NC(Cc3ccccc3)CS(C)(=O)=O)nc2c1 (stereo not drawn) [Compound 146] |
| < 30 nM | CSC[C@H](Cc1cccc(Cl)c1)Nc1nc2cc(C(C)C)ccc2o1 [Compound 142] |
| < 100 nM | CC(C)c1ccc2oc(N[C@H](CNS(=O)(=O)N(C)C)Cc3ccccc3)nc2c1 [Compound 152] |
| < 30 nM | COCC(Cc1ccc(F)cc1)Nc1nc2cc(C(C)C)ccc2o1 (stereo not drawn) [Compound 136] |

same assay, conditions: Homo sapiens, Leukocyte, Table 9, Miscellaneous Heterocycle; values with <: see footnote d, Table 1

| IC50 | SMILES |
| --- | --- |
| 90 nM | CC(C)c1ccc2oc(NC(Cc3ccc(F)cc3)c3ncc[nH]3)nc2c1 (stereo not drawn) [Compound 156] |
| < 30 nM | Cc1csc(C(Cc2cccc(Cl)c2)Nc2nc3cc(C(C)C)ccc3o2)n1 (stereo not drawn) [Compound 160] |
| < 30 nM | CC(C)c1ccc2oc(NC(Cc3cccc(Cl)c3)c3ncc[nH]3)nc2c1 (stereo not drawn) [Compound 158] |
| < 100 nM | CC(C)c1ccc2oc(NC(Cc3ccccc3)c3cn[nH]c3)nc2c1 (stereo not drawn) [Compound 161] |
| 290 nM | Fc1ccc(CC(Nc2nc3cc(Cl)ccc3o2)c2ncc[nH]2)cc1 (stereo not drawn) [Compound 155] |

same assay, conditions: Homo sapiens, Leukocyte, Table 10, Oxazolopyridines; values with <: see footnote d, Table 1

| IC50 | SMILES |
| --- | --- |
| 21 nM | c1ccc(C(CC2CCCCC2)Nc2nc3cccnc3o2)cc1 (stereo not drawn) [Compound 170] |
| 300 nM | Cc1ccc2oc(NC(CC3CCCCC3)c3cccnc3)nc2n1 (stereo not drawn) [Compound 168] |
| 210 nM | COC(=O)[C@H](CC1CCCCC1)Nc1nc2ncccc2o1 [Compound 162] |

same assay, conditions: Homo sapiens, Leukocyte, Table 11, Thiazolopyridines; values with <: see footnote d, Table 1

| IC50 | SMILES |
| --- | --- |
| 28 nM | Fc1ccc(CC(Nc2nc3ncc(Cl)cc3s2)c2ccccn2)cc1 (stereo not drawn) [Compound 189] |
| 6.5 nM | Cc1nc2nc(NC(CC3CCCCC3)c3ccccn3)sc2cc1Br (stereo not drawn) [Compound 185] |
| < 300 nM | Cc1cnc2nc(NC(Cc3ccc(F)cc3)c3ccccn3)sc2c1 (stereo not drawn) [Compound 192] |
| 21 nM | Cc1nc2nc(NC(CC3CCCCC3)c3cccnc3)sc2cc1Br (stereo not drawn) [Compound 186] |

same assay, conditions: Homo sapiens, Leukocyte, Table 14, Miscellaneous Compounds; values with <: see footnote d, Table 1

| IC50 | SMILES |
| --- | --- |
| < 100 nM | CC(C)c1ccc2oc(NC(Cc3cccc(Cl)c3)c3nccn3C)nc2c1 (stereo not drawn) [Compound 202] |

same assay, conditions: Leukocyte; Table 1, Esters; LTB4, A23187-stimulated human PMNs; values with < (footnote d): greater than 50% (504 [sic]) inhibition at this concentration, IC50 not characterized further

| IC50 | SMILES |
| --- | --- |
| 16 nM | COC(=O)[C@@H](CC1CCCCC1)Nc1nc2cc(C)ccc2o1 [Compound 26] |
| 230 nM | CCOC(=O)C(Cc1ccc(Cl)cc1)Nc1nc2ccc(OC)cc2s1 (stereo not drawn) [Compound 9] |
| < 100 nM | CCOC(=O)C(Cc1ccncc1)Nc1nc2cc(C(C)C)ccc2o1 (stereo not drawn) [Compound 31] |
| 150 nM | CCOC(=O)[C@H](Cc1ccccc1)Nc1nc2ccccc2o1 [Compound 17] |
| 200 nM | CCOC(=O)C(Cc1ccc(Cl)cc1)Nc1nc2ccccc2s1 (stereo not drawn) [Compound 1] |
| < 300 nM | CCOC(=O)C(Cc1nccs1)Nc1nc2cc(Cl)ccc2o1 (stereo not drawn) [Compound 28] |
| 1 nM | COC(=O)[C@H](CC1CCCCC1)Nc1nc2cc(C(C)C)ccc2o1 [Compound 23] |
| 150 nM | CCOC(=O)C(Cc1ccc(Br)cc1)Nc1nc2ccccc2s1 (stereo not drawn) [Compound 3] |
| 250 nM | CCOC(=O)[C@H](Cc1ccccc1)Nc1nc2ccc(C(C)C)cc2s1 [Compound 6] |
| 100 nM | COC(=O)[C@@H](CC1CCCCC1)Nc1nc2ccccc2o1 [Compound 22] |

same assay, conditions: Table 10, Oxazolopyridines; values with <: see footnote d, Table 1

| IC50 | SMILES |
| --- | --- |
| 170 nM | Cc1ccc2oc(NC(CC3CCCCC3)c3ccccn3)nc2n1 (single isomer, unassigned) [Compound 167] |
